Consider 43 molecules from publication PMC6644994, “Chemical Ligand Space of Cereblon” (ACS Omega, 2018).

Usually Ki stands for a measure of affinity in units of concentration, obtained from inhibition or displacement.

Entries after “also recorded” stand apart in the source; their conditions may differ. Where two headings read alike, the source gives them in different places.

Data set [1] deals with MsCI4 (Magnetospirillum gryphiswaldense, UniProt A4TVL0, W36F/W59F). Briefly: biochemical. The format is binding.
Data set [2] deals with zebrafish embryos (cereblon-mediated pectoral fin malformation). The conditions noted are these: cited from earlier work.
Data set [3] shares this test system. Briefly: Zebrafish pectoral fin deformity assay.
For data set [4], the target named is T1, MsCI4 (Magnetospirillum gryphiswaldense, UniProt A4TVL0).
T1 sequence (A4TVL0 1-124): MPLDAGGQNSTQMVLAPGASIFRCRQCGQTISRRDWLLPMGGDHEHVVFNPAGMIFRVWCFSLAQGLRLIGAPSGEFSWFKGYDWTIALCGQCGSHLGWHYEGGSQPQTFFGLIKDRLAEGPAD
Briefly: X-ray crystallography of MsCI4·ligand crystals obtained by soaking. The format is binding. The conditions noted are these: for binding verified via crystallography (in words): MsCI4·thalidomide crystals soaked with solid rolipram. Details: key to binding verified via crystallography (symbol in Table S1): X-tal: binding verified via crystallography. An excerpt:
In a next step, we characterized the binding of representative compounds via X-ray crystallography. […] (II) The structures with ethosuximide, hydantoin, 2-thiohydantoin, and thiazolidine-2,4-dione verify that imides with 5-membered rings have the same basic binding mode as 6-membered rings. (III) The binding mode of γ-butyrolactam, δ-valerolactam and rolipram verifies that lactams have a binding mode analogous to imides, with their carbonyl group occupying position d. […] Importantly, in a direct comparison with the crystal structure of the human thalidomide-binding domain, none of the protruding moieties of the effectors is interacting or in contact with any nonconserved amino acid side chain, such that their binding modes are not influenced by species-specific differences (Figure S2).
After 40 h of soaking, these crystals were loop-mounted and flash-cooled in liquid nitrogen. Data were collected at 100 K and a wavelength of 1 Å on a PILATUS 6M-F detector at beamline X10SA of the Swiss Light Source (PSI, Villigen, Switzerland). Diffraction images were indexed, integrated, and scaled using XDS.[34] […] Data collection and refinement statistics are summarized together with PDB accession codes in Table S2. All molecular depictions were prepared using MolScript,[37] BobScript,[38] and Raster3D.[39]

[5] abbreviates: Table S1, affinity for MsCI4, FRET assay, read-out: Ki.
[6] abbreviates: zebrafish embryos, 400 μM, 75 h post fertilization.

MsCI4 (Magnetospirillum gryphiswaldense, UniProt A4TVL0, W36F/W59F), sequence (A4TVL0 entry or part of it W36F/W59F): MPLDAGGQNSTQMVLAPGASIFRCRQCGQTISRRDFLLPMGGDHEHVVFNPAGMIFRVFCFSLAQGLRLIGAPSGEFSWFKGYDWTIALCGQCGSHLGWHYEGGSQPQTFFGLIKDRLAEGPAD

Turning to `O=C1CCN1` [Azetidin-2-one], on MsCI4 [1] (setting [5]), the Ki worked out at 77 ± 11 µM.
Molecule `O=C1CNC(=S)N1` [2-Thiohydantoin] had an inhibition constant (Ki) on MsCI4 [1] of 13 ± 1.3 µM.
As to `CC1(C)OC(=O)NC1=O` [5,5-Dimethyl-oxazolidine-2,4-dione], the Ki at MsCI4 [1] is above 1000 µM. Also, the “binding to MsCI4 in the FRET assay (in words)” value (“binding to MsCI4” for short) at MsCI4 [1] (FRET assay) is listed as “no detectable binding”.
At MsCI4 [1], `O=c1[nH]cc([C@@H]2O[C@H](CO)[C@@H](O)[C@H]2O)c(=O)[nH]1` [Pseudouridine] had a Ki above 1000 µM. The “binding to MsCI4” value on MsCI4 [1] (FRET assay) is on record as “not detectable; also recorded: no detectable binding”.
For the molecule `Cc1cn([C@H]2C[C@H](O)[C@@H](CO)O2)c(=O)[nH]c1=O` [Thymidine], the Ki at MsCI4 [1] amounted to 204 ± 34.5 µM. Besides, at MsCI4 [1] (FRET assay), the “binding to MsCI4” value is reported as “very low but measurable affinities”.
Turning to `O=C1CCCC(=O)O1` [Glutaric Anhydride], on MsCI4 [1], the inhibitory constant (Ki) was above 1000 µM.
At MsCI4 [1], `O=c1ccn([C@@H]2O[C@H](CO)[C@@H](O)[C@H]2O)c(=O)[nH]1` [Uridine] came in with a Ki of 13 ± 1.9 µM. The “teratogenic effect on fin formation in zebrafish” value in data set [2] (zebrafish) was “same effect on fin formation”.
As for `CN1CC(=O)NC1=O` [N-Methylhydantoin], the Ki at MsCI4 [1] worked out at 16 ± 1.3 µM.
For the molecule `O=C1CCNC(=O)N1` [Dihydrouracil, Hexahydropyrimidine-2,4-dione], the affinity at MsCI4 [1] corresponds to a Ki of 88 ± 6.8 µM.
The molecule `CC(=O)NCCN` [N-(2-Aminoethyl)acetamide] showed an inhibition constant (Ki) at MsCI4 [1] above 1000 µM. Further, the “binding to MsCI4” value on MsCI4 [1] (FRET assay) is listed as “could not detect any binding”.
Take `CC(N)=O` [Acetamide]: at MsCI4 [1] (FRET assay), the “binding to MsCI4” value is “could not detect any binding”. At MsCI4 [1] (setting [5]), the Ki was above 1000 µM.
`C1CCNCC1` [Piperidine] showed an inhibition constant Ki on MsCI4 [1] above 1000 µM.
Turning to `NC(=O)NC(=O)Cc1ccccc1` [Phenylacetylurea], on MsCI4 [1] (FRET assay), the “binding to MsCI4” value was “did not bind”. Further, at MsCI4 [1] (setting [5]), the Ki is above 1000 µM.
`CN1CC(=O)NC1=N` [Creatinine, 2-Imino-N-methylhydantoin] registered an inhibition constant (Ki) on MsCI4 [1] above 1000 µM.
Turning to `O=C1CCCCCCN1` [1-Azo-2-Cyclooctanone], the Ki on MsCI4 [1] (setting [5]) is above 1000 µM.
With `O=C1CCCO1` [γ-Butyrolactone], on MsCI4 [1], the inhibition constant Ki is above 1000 µM.
`Nc1cc[nH]c(=O)n1` [Cytosine] registered a Ki at MsCI4 [1] above 1000 µM.
As to `CC1CCC(=O)N1` (stereo not drawn) [5-Methylpyrrolidin-2-one], the affinity on MsCI4 [1] corresponds to a Ki of 19 ± 6 µM.
Consider `O=C1CC(=O)NC(=O)N1` [Barbiturate], for which, at MsCI4 [1], the inhibitory constant (Ki) was above 1000 µM. Also, on MsCI4 [1] (FRET assay), the “binding to MsCI4” value is “abolished binding”. In data set [3] (setting [6]), the “pectoral fin deformity / teratogenic effect” value is “no effect; also recorded: does not cause any effects”.
For `O=C1CSC(=O)N1` [Thiazolidine-2,4-dione], affinity at MsCI4 [1] was put at a Ki of 137 ± 15.9 µM.
Take Pyrrol-2,5-dione [Maleimide]: the Ki on MsCI4 [1] (setting [5]) turned out to be 35 ± 3.1 µM.
Take `O=C1CCC(N2C(=O)c3ccccc3C2=O)C(=O)N1` (stereo not drawn) [Thalidomide]: the “pectoral fin development in zebrafish embryos” value in data set [2] (zebrafish embryos) is on record as “stunted pectoral fins”. Also, the pectoral fin phenotype entry in data set [3] (zebrafish, 200 μM) is reported as “not clearly identifiable”.
For the molecule `COc1ccc(C2CNC(=O)C2)cc1OC1CCCC1` (stereo not drawn) [Rolipram], the “binding verified via crystallography (in words)” value at MsCI4 [4] was “binding was confirmed via crystallography”; on MsCI4 [4] (listed as rolipram), “could verify its binding via crystallography; also recorded: verified by crystallography”. Besides, at MsCI4 [4] (Table S1), the “binding verified via crystallography (symbol in Table S1)” value is “X-tal”.
At MsCI4 [1], `CCC1(C)NC(=O)NC1=O` (stereo not drawn) [5-Ethyl-5-methyl-hydantoin] came in with an inhibition constant (Ki) above 1000 µM. The “binding to MsCI4” value on MsCI4 [1] (FRET assay) is on record as “no binding was detectable”.
The like results for `Cc1c[nH]c(=O)[nH]c1=O` [Thymine, 5-Methylpyrimidine-2,4-dione] were, in that order, 478 ± 41.6 µM and “very low but measurable affinities”.
The molecule `O=C1CCC(=O)O1` [Succinic Anhydride] gave an inhibition constant Ki at MsCI4 [1] above 1000 µM.
Regarding N-(2-Hydroxypropyl)acetamide, the “binding to MsCI4” value at MsCI4 [1] (FRET assay) was “could not detect any binding”. Moreover, the Ki on MsCI4 [1] (setting [5]) is above 1000 µM.
For `C1CCNC1` [Pyrrolidine], the Ki on MsCI4 [1] (setting [5]) was above 1000 µM.
Consider `O=C1CCCCCN1` [ε-Caprolactam], for which the Ki on MsCI4 [1] was above 1000 µM. The “binding to MsCI4” value at MsCI4 [1] (FRET assay) is “no detectable binding”.
Regarding `O=C1CCCC(=O)N1` [Glutarimide, Piperidine-2,6-dione], in data set [3] (setting [6]), the “effect on pectoral fin deformity of injecting zcrbnYW/AA mRNA (thalidomide-insensitive cereblon mutant)” value is “alleviated” and the “pectoral fin deformity / teratogenic effect” value is reported as “strongest effect; also recorded: cause developmental defects”.
On to `CC(=O)NC(N)=O` [N-Acetylurea], for which, at MsCI4 [1] (FRET assay), the “binding to MsCI4” value is listed as “detectable”. Further, the Ki on MsCI4 [1] (printed in figures and text, FRET assay, read-out: Experimental Ki values for MsCI4) turned out to be 522 µM.
Molecule `C[C@@H]1C[C@@H]([C@H](O)CC2CC(=O)NC(=O)C2)C(=O)[C@@H](C)C1` [Cycloheximide] displayed a Ki on MsCI4 [1] above 1000 µM. Besides, the “binding to MsCI4” value on MsCI4 [1] (FRET assay) is recorded as “abolished binding”.
As for `S=C1CCCN1` [Pyrrolidine-2-thione], at MsCI4 [1], the inhibition constant Ki was above 1000 µM.
Still for that read-out and setting: with `CCC1(c2ccc(N)cc2)CCC(=O)NC1=O` (stereo not drawn) [Aminoglutethimide] the figure was 39 ± 3.8 µM.
Still for that read-out and setting: then `COc1ccc(C2CNC(=O)C2)cc1OCCCN1CCC(C(=O)c2ccc(F)cc2)CC1` (stereo not drawn) [Lidanserin], with 25 ± 8.5 µM; and `O=C1CCC(=O)N1` [Succinimide, Pyrrolidine-2,5-dione], with 4.3 ± 0.5 µM; and `O=c1cc[nH]c(=O)[nH]1` [Uracil, Pyrimidine-2,4-dione], with 35 ± 5.1 µM.
Still for that read-out and setting: then `O=c1ccn([C@H]2C[C@H](O)[C@@H](CO)O2)c(=O)[nH]1` [Deoxyuridine], with 15 ± 1.6 µM.
In turn, `O=C1CCCCN1` [δ-Valerolactam, Piperidin-2-one] yielded a Ki at MsCI4 [1] of 146 ± 20.3 µM.
At MsCI4 [1], `CC(=O)NCCCCC(N)C(=O)O` (stereo not drawn) [N-ε-Acetyllysine, 2-azaniumyl-6-acetamidohexanoate] returned an inhibition constant (Ki) above 1000 µM. Moreover, the “binding to MsCI4” value on MsCI4 [1] (FRET assay) is “could not detect any binding”.
`O=C1CCCN1` [γ-Butyrolactam, Pyrrolidin-2-one] gave a Ki on MsCI4 [1] of 57 ± 11.6 µM.
On the same count and under the same terms, with `O=C1CNC(=O)N1` [Hydantoin, Imidazolidine-2,4-dione] the figure was 43 ± 10.7 µM; with `CCC1(C)CC(=O)NC1=O` (stereo not drawn) [Ethosuximide, 3-Ethyl-3-methylsuccinimide], 136 ± 11.6 µM.
